Data on 1 substance can be found in patent publication US20110092624A1, “INK COMPOSITION AND METHOD FOR PRODUCING THE SAME” (SEIKO EPSON CORPORATION, priority 2009, published 2011).

The data set can be described thus: Solubility of acidic dye and by-product in solvents, rated by filter cake weight. The format is physicochemical. The following applies: 10 g solvent, filtered 0.2 μm, dried filter cake weighed. As to the method: The acidic dye was C. I. Acid Blue 290. The acidic dye was added to 10 g of each organic solvent and the organic solvent was agitated, whereby the acidic dye was dissolved in the organic solvent. A solution thereby obtained was filtered through an Omnipore membrane filter, having a pore size of 0.2 μm, available from Nihon Millipore K.K. A filter cake thereby obtained was dried and then weighed. A by-product represented by the following formula was measured for solubility in the same manner as that used to measure the acidic dye:
The solubility of the acidic dye and by-product in each organic solvent was evaluated on the basis of the weight of the filter cakes. Evaluation standards were as described below.
A rating of 5: 0 to less than 0.2 g of a filter cake
A rating of 4: 0.2 to less than 0.4 g of a filter cake
A rating of 3: 0.4 to less than 0.6 g of a filter cake
A rating of 2: 0.6 to less than 0.8 g of a filter cake
A rating of 1: 0.8 g or more of a filter cake

As for C. I. Acid Blue 290 [Acidic dye], the Solubility rating by setting is: (Acetone) 1 (A rating of 1: 0.8 g or more of a filter cake); (Acrylonitrile) 3 (A rating of 3: 0.4 to less than 0.6 g of a filter cake); (Chloroform) 4 (A rating of 4: 0.2 to less than 0.4 g of a filter cake); (Ethanol) 3 (A rating of 3: 0.4 to less than 0.6 g of a filter cake); (Hexane) 2 (A rating of 2: 0.6 to less than 0.8 g of a filter cake); (Methanol) 5 (A rating of 5: 0 to less than 0.2 g of a filter cake). In addition, the Solubility rating was 4 (A rating of 4: 0.2 to less than 0.4 g of a filter cake) (Tetrahydrofuran) and 1 (A rating of 1: 0.8 g or more of a filter cake) (Water).
